Measurements as given in a melting point compilation (Tetko et al.; mined from patent text by program, amines drawn as free bases though some values may be those of a salt).

Row | melting point [°C] | SMILES
1 | 114 to 116 | CCCc1c(C(C)C)cc(C(C)C)c(C(C)O)c1-c1ccc(F)cc1 (single isomer, unassigned; (+))
2 | 195 | Cc1c(C(=O)Nc2ccc(N3CCC(N4CCOCC4)CC3)c(C#N)c2)cnn1CCc1ccccc1
3 | 124 to 126 | CCCCc1nn(-c2ccccc2C(F)(F)F)c(=O)[nH]1
4 | 40 to 42 | CCCCCCCCCCCCCCCCCCOc1cc(OCCCCC(=O)OC)cc(C(=O)OCc2ccccc2)c1
5 | 173 to 175 | O=C(NCc1ccccc1)c1ccnc(-n2cnn(Cc3ccc(F)cc3)c2=O)c1
6 | 43 | COc1cc(C(C#N)O[Si](C)(C)C(C)(C)C)cc(OC)c1OC (centres undefined)
7 | > 320 | O=C1CCC(c2ccc3nc(-c4ccncc4)[nH]c3c2)=NN1
8 | 248 to 250 | O=C1NN(C(=O)c2cc3ccccc3[nH]2)C(c2ccccc2)C1c1ccccc1 (centres undefined)
9 | 195 to 196 | Cc1nc(N2CCN(Cc3ccc(OC(F)(F)F)cc3)C2=O)sc1C(=O)NCCC1CC1
10 | 112 to 115 | CCCOc1ccc(C)cc1C(N)=O
11 | 42 to 57 | CC(C(=O)Oc1cc(=O)n(-c2cccc(C(F)(F)F)c2)c2ncccc12)c1ccccc1 (centres undefined)
12 | 132 | COc1ccccc1CNc1ccc2cc(Nc3cc(C)on3)ccc2n1
13 | 226 to 227 | CCCCn1c(=O)[nH]c2cccc(OCC3CO3)c21 (centres undefined)
14 | 273 to 274 | O=C1OCC2=C1C(c1ccccc1[N+](=O)[O-])C1=C(COC1=O)N2
15 | 182 to 184 | CN1CCC(c2c[nH]c3ccc(OS(=O)(=O)c4ccc(Cl)cc4)cc23)CC1
16 | 306 to 308 | CCCC(=O)Nc1cnc2cc(F)ccc2c1O
17 | 183 to 184 | N#Cc1n[nH]cc1-c1ccc(Cl)cc1C(=O)c1ccccc1Cl
18 | 194 to 196 | Cc1cc(N2CCCC(O)C2)c(S(C)(=O)=O)cc1C(=O)N=C(N)N (centres undefined)
19 | 155 to 156 | S=c1nc(-c2cccnc2Cl)[nH]n1Cc1ccccc1
20 | 95 to 96 | N#Cc1ncn(Cc2ccc(Cl)c(Cl)c2)c1C#N
21 | 151 to 152 | Cc1nnnn1C(C=O)=C(c1ccc(F)cc1)c1ccc(F)cc1
22 | 198 to 200 | CCN(CC)CCOC(=O)C1=C(C)Nc2ccnc(OC(C)C)c2C1c1ccccc1C(F)(F)F (centres undefined)
23 | 136 | CC(Oc1ccc(N(C)c2cc3ccc(Cl)cc3c(Cl)n2)cc1)C(=O)O (centres undefined)
24 | 123 to 124 | Cc1cc(C)nc(NC(=O)Cc2c(Cl)sc3ccccc23)c1

Row | melting point [°C] | SMILES
25 | 195 to 196 | CC(C)(C)NCC(O)COc1ccc2nc(S(N)(=O)=O)sc2c1 (centres undefined)
26 | 68 to 70 | CCN(C(=O)N1CCN(c2cc(C)cc(C)c2)CC1)c1nc(C)c(C)nc1OC
27 | 193 | COC(=O)c1nn(-c2cccc(NC(C)=O)c2)c(=O)n(Cc2ccc(Cl)cc2)c1=O
28 | 128 | CC(C)CCOC(=O)C(C)Oc1cc(-c2nn(C)c(C(F)(F)F)c2Cl)c(F)cc1Cl (centres undefined)
29 | 202 to 205 | CCCN=C(N)Nc1ccnc(C(CCC)C(=N)N)n1 (centres undefined)
30 | 118 | O=C(NCCc1ncc(Cl)cc1Cl)c1ccccc1C(F)(F)F
31 | 202 | CCOC(=O)N1C=CC2=NC(C)=NC(N(C)c3ccccc3)N21 (centres undefined)
32 | 74 to 75 | Cc1ccc(CCOc2ccc(N)cc2)nc1
33 | 163 to 165 | c1ccc(-c2nnc(-c3ccccc3)c3c2CCCCCC3)cc1
34 | 124 to 125 | CCC(O)(Cn1cncn1)C(C)(C)Cc1ccc(Cl)cc1 (centres undefined)
35 | 102 to 114 | COCCOc1ccc(/C=C/C(=O)O)c(OC2CCCCC2)c1
36 | 68 | COC(=O)c1ccc(C(O)c2cc3cc(C(F)(F)F)ccc3n2S(=O)(=O)c2ccc(C(C)C)cc2)cc1 (centres undefined)
37 | 199 to 204 | COC(=O)c1ccc2[nH]c3cnc(C(=O)OC)c(C)c3c2c1
38 | 173 | O=C(O)[C@@H]1[C@H](C(=O)O)N(Cc2ccccc2)C(=O)N1Cc1ccccc1
39 | 163 to 165 | COc1ccc(Cn2c3ccccc3c3c(N)c4c(nc32)CC(c2ccccc2)CC4=O)cc1 (centres undefined)
40 | 62.4 to 63.6 | CCCCC(CC)Cn1c2ccc(Br)cc2c2cc(Br)ccc21 (centres undefined)
41 | 79 to 80 | CCc1cc(C)cc(CC)c1C1C(=O)C2=CC(CCC(C)=NOC)CC2C1=O (centres undefined)
42 | 178 to 180 | COC(=O)CCc1c(O)ncc2cc(OC)c(OC)cc12
43 | 215 to 216 | CC(C(=O)NCC(F)(F)C(F)(F)F)C(=O)NC1C(=O)Nc2cc(F)ccc2OC1C (centres undefined)
44 | 106 | COc1cc(Cc2cnc(NCCSCc3nccs3)[nH]c2=O)ccn1
45 | 41 to 45 | C=CCc1cc(C)c2c(c1O)C(=O)CC2
46 | 69 to 70 | O=C(OC1CCN(Cc2ccccc2)CC1)c1ccccc1Br
47 | 176 | CC(C)(S)[C@@H](NC(=O)c1ccc(Br)cc1)C(=O)O
48 | 76 to 82 | CCS(=O)(=O)n1cc(C(=O)C2CSC(c3cccnc3)N2)c2ccc(OCc3ccccc3)cc21 (centres undefined)

Row | melting point [°C] | SMILES
49 | 225 to 227 | N#Cc1ccc2cc(-c3cccc(O)c3)oc2c1
50 | 165 to 167 | C=CCN(CC=C)c1nc(NC(=O)Cc2ccccc2)n2oc(=O)nc2n1
51 | 136 | Brc1ccc(C2(Cn3cncn3)OCCO2)cc1
52 | 94 to 96 | COc1cc(C(=O)C#Cc2ccccc2)cc(OC)c1OC
53 | 135 to 138 | CN(C)c1noc(-c2cc(C(C)(C)C)c(O)c(C(C)(C)C)c2)n1
54 | 270 to 275 | NC(=NO)c1nc(Cl)c(Cl)[nH]1
55 | 181 to 182 | CNC(=O)N(N)c1nnc(C(F)(F)F)s1
56 | 137 to 139 | O=C1N(Cc2noc(C(F)F)n2)c2ccccc2C12COc1cc3c(cc12)OCO3 (centres undefined)
57 | 146 to 148 | CCN(CC)CC1CCCCN1CCNC(=O)N1c2ccccc2NC(=O)c2cccnc21 (centres undefined)
58 | > 300 | O=C(Nc1ccccc1)c1ccccc1Nc1ncnc2[nH]cc(C(=O)c3ccccc3)c12
59 | 103 to 105 | CC1(C)Oc2ccc(S(=O)(=O)c3ccccc3)cc2C2OC21 (centres undefined)
60 | 87 to 88 | CCC(=NOc1ccc(Cl)cc1)c1cc(Cl)ccc1NS(=O)(=O)C(F)(F)F
61 | 88 to 90 | O=C(NCC1Cc2ccc3c(c2O1)CCCC3)OCc1ccccc1 (centres undefined)
62 | 256 to 257 | CCCCCCOc1ccc(C(=O)Nc2ccc(C(=O)O)cc2)cc1C12CC3CC(CC(C3)C1)C2
63 | 212 to 213 | COc1cc2ncnc(Nc3ccc(F)c(Cl)c3)c2cc1OCCN1CC(=O)O[C@@H](C)C1
64 | 245 to 255 | Cc1[nH]c2ncnc(Nc3cccc(F)c3)c2c1C
65 | > 260 | Cc1cc2c(cc1OCC(=O)O)C(C)(C)CC1(CC(C)(C)c3cc(OCC(=O)O)c(C)cc3O1)O2
66 | 115 to 118 | CC12CCC3C4CCC(=O)C=C4CCC3C1CCC2CO (centres undefined)
67 | 151 | O=CNc1cc(-c2ccc(Cl)cc2)n[nH]1
68 | 195 to 200 | O=C1COc2ccc(C3=Nc4ccccc4SC3c3ccccc3Cl)cc2N1 (centres undefined)
69 | 228 | CN1C(=O)N(c2cc(Cl)cc(Cl)c2)C(=O)[C@]12CN(Cc1ccccc1)C[C@H]2c1ccc(-c2cncnc2)cc1 (relative stereo)
70 | 190 to 191 | NC1=NN(c2ccc3ccccc3c2)CC1
71 | 101 | CC(C)N1CCN(Cc2cc(NC(=O)Nc3ccc(Oc4cc(Cl)ncn4)cc3)cc(C(F)(F)F)c2)CC1
72 | 84 to 85 | Cc1cnc(C)c(Oc2ccc(OCn3cnc(Cl)c3Cl)cc2)n1

Row | melting point [°C] | SMILES
73 | 52 to 53 | O=C(NC(Cc1ccccc1)C(=O)O)c1ccccc1O (centres undefined)
74 | 100 | O=C1[C@H](O)[C@@H](O)C(=O)N1Cc1ccccc1
75 | 99 to 100 | Cc1cccc(NC(=O)CN2CCN(c3ncccc3C#N)CC2)c1
76 | 244 | CC(=O)NC(c1ccc(Cl)cc1)(c1ccc2c(c1)c(-c1nc(-c3ccccc3)cs1)cc(=O)n2C)c1cncn1C (centres undefined)
77 | 195 | Cc1ccc(-c2nccc3c(CO)cccc23)cc1
78 | 108 to 110 | Cc1[nH]cnc1C=CC(=O)c1cn2c3c(cccc13)CCC2
79 | 179 to 180 | Cc1c(Cc2ccc(C(C)C)cc2)c2c(c(C)c1NC(=O)CC(C)(C)C)CC(C)O2 (centres undefined)
80 | 119 to 121 | CCOC(=O)c1ccc(NC(=O)C(CSC(C)=O)Cc2ccccc2)cc1 (centres undefined)
81 | 122 | COc1ccc(N2C(=O)C(C)N(c3ccc(Cc4ccccc4)cc3)C2=S)cc1 (centres undefined)
82 | 235 to 236 | Nc1nc(N)c(CCCCc2csc(OC(=O)N[C@@H](CCC(=O)O)C(=O)O)c2)c(O)n1
83 | 117 | CCc1ccc(O)c(C(=NO)c2ccc(Cl)cc2)c1
84 | 162 | COC1C=Cc2ccccc2C1(Nc1ccccc1C)C(N)=S (centres undefined)
85 | 102 to 104 | CCN(CC)c1ccc(/C=C/c2cc(/C=C/c3ccc4cc[nH]c4c3)[nH]n2)c(OCCN2CCCCC2)c1
86 | 103 to 104 | CCN(CC)CCn1c(Cl)c(C(=O)NC)c2ccccc21
87 | > 300 | O=C(c1cc2cc([N+](=O)[O-])ccc2[nH]1)N1CC(CCl)c2c1cc([N+](=O)[O-])c1ccccc21 (centres undefined)
88 | 184 | N#CSc1cc(C(=O)O)cc([N+](=O)[O-])c1C(=O)c1ccccc1
89 | 176 to 179 | CCOC(=O)c1cn(CC)c2cc(N3CCN(C)CC3)c(F)cc2c1=O
90 | 158 to 160 | C=CCOc1cc(-n2c(=O)cc(C(F)(F)F)n(C)c2=O)ccc1C#N
91 | 280 | Cc1cccc(Nc2nc3c(s2)CCc2[nH]ncc2-3)n1
92 | 97 to 98 | CCOC(=O)C=Cc1ccc(CCNS(=O)(=O)c2ccc(Cl)cc2)cc1
93 | 73 to 75 | COC(=O)C=CC=CCSc1ccc2ccccc2c1
94 | 118 to 120 | C/C=C(\C)CNc1cccc(-c2ccnc3c(C(=O)c4cccs4)cnn23)c1
95 | 58 to 59 | CCc1c(O)cccc1O
96 | 220 to 222 | Cn1cc(C(=O)NCc2ccc(Cl)cc2)c(=O)c2cc(CN3CCOCC3)cc(C#CCN3CCS(=O)(=O)CC3)c21

Row | SMILES | melting point [°C]
97 | O=C(O)c1cc2ccccc2n1Cc1cccc(Cl)c1 | 188 to 189
98 | CC(=O)N(C)C(=O)Oc1cccc2c1OC(C)(C)O2 | 76 to 77
99 | O=[N+]([O-])c1cc(Br)c(NS(=O)(=O)c2ccccc2)cc1Br | 148
